Like-named read-outs stand apart in the source and are kept apart here.
Columns and labels:
Assay type in all cases: in vivo
[1] = tested on: rice blast pathogen (Magnaporthe grisea); conditions: rice seedlings (Koshihikari), 400 ppm dropped onto water surface, inoculated two days later
[2] = tested on: rice blast pathogen (Magnaporthe grisea); conditions: rice seedlings (Koshihikari), 400 ppm dropped onto water surface, inoculated 14 days later
[3] = tested on: apple scab pathogen (Venturia inaequalis); experiment: Apple scab control test (100 ppm spray on apple seedlings); conditions: 336 h; apple seedlings (Ralls Janet), emulsion sprayed at 100 ppm, inoculated with Venturia inaequalis, 2 weeks
Method: Ralls Janet, leaf stage: 3 to 4) cultivated in unglazed pots and allowed to air-dry at room temperature. Subsequently, the seedlings were inoculated with conidiospores of apple scab pathogen (Venturia inaequalis) followed by holding for 2 weeks indoors at 20° C. and high humidity using a 12 hour light/dark cycle. The appearance of lesions on the leaves was compared with untreated seedlings to determine control effects.

[4] = tested on: cucumber gray mold pathogen (Botrytis cinerea); experiment: Cucumber gray mold control test; conditions: 96 h, cucumber seedlings (Sagami Hanjiro), emulsion sprayed at 100 ppm, 4 days
Method: Sagami Hanjiro, leaf stage: cotyledon) cultivated in unglazed pots, and allowed to air-dry at room temperature. Subsequently, the seedlings were drip-inoculated with conidiospore suspensions of cucumber gray mold pathogen (Botrytis cinerea) followed by holding for 4 days in a dark room at 20° C. and high humidity. The appearance of lesions on the leaves was compared with untreated seedlings to determine control effects.

Compound | control effects [1] | control effects [2] | pest or weed control at 100 ppm [3] [%] | pest or weed control at 100 ppm [4] [%]
CC(C)OC(=O)C(C)(C)c1ccccc1Oc1cnc2c(F)c(F)ccc2n1 [Compound 1-24] | B (Control value of 40% to less than 60%) |  |  | 
CC(C)(O)c1ncccc1Oc1cnc2c(F)cccc2c1 [a-8] |  | B (Control value of 40% to less than 60%) |  | 
CCOC(=O)C(C)(C)c1ncccc1Oc1cnc2c(F)cccc2c1 [a-12, 2-[3-(8-fluoro-quinolin-3-yloxy)-pyridin-2-yl]-2-methylpropionic acid ethyl ester] |  |  | ≥ 75 | ≥ 75
CC(C)(C(=O)O)c1ncccc1Oc1cnc2c(F)cccc2c1 [a-19, 2-[3-(8-fluoro-quinolin-3-yloxy)-pyridin-2-yl]-2-methylpropionic acid] |  |  | ≥ 75 | 
CC(=O)c1ncccc1Oc1cc2cccc(F)c2nc1C [a-9, 1-[3-(2-methyl-8-fluoroquinolin-3-yloxy)-pyridin-2-yl]-ethanone] |  |  | ≥ 75 | 
CC(C)(C#N)c1ncccc1Oc1cnc2c(F)cccc2c1 [a-11, 2-[3-(8-fluoro-quinolin-3-yloxy)-pyridin-2-yl]-2-methylpropionitrile] |  |  | ≥ 75 | ≥ 75
Cc1nc2c(F)cccc2cc1Oc1cccnc1C(C)(C)O [a-7, 2-[(8-fluoro-2-methylquinolin-3-yloxy)pyridine-2-yl]propan-2-ol] |  |  | ≥ 75 | ≥ 75
COC(C)(C)c1ncccc1Oc1nc2ccc(F)c(F)c2nc1C [Compound 1-35, 5,6-difluoro-2-[2-(1-methoxy-1-methyl-ethyl)-pyridin-3-yloxy]-3-methyl-quinoxaline] |  |  | ≥ 75 | ≥ 75
CC(=O)C(C)(C)c1c(F)cccc1Oc1cnc2c(F)cccc2n1 [Compound 1-10, 3-[2-fluoro-6-(5-fluoro-quinoxalin-2-yloxy)-phenyl]-3-methyl-butan-2-one] |  |  | ≥ 75 | ≥ 75
CC(C)(C=O)c1ncccc1Oc1cnc2c(F)cccc2c1 [a-21, 2-[3-(8-fluoro-quinolin-3-yloxy)-pyridin-2-yl]-2-methyl-propioaldehyde] |  |  | ≥ 75 | ≥ 75
CCNC(=O)C(C)(C)c1ncccc1Oc1cnc2c(F)cccc2c1 [a-55, N-ethyl-2-[3-(8-fluoro-quinolin-3-yloxy)-pyridin-2-yl]-isobutylamide] |  |  | ≥ 75 | 
CCOC(C)(C)c1ncccc1Oc1cc2cccc(F)c2nc1C [a-56, 3-[2-(2-ethoxy-2-propyl)pyridin-3-yloxy]-8-fluoro-2-methylquinoline] |  |  | ≥ 75 | ≥ 75
COC(C)(C)c1ncccc1Oc1cc2cccc(F)c2nc1C [a-16, 3-[2-(2-methoxy-2-propyl)pyridin-3-yloxy]-8-fluoro-2-methylquinoline] |  |  | ≥ 75 | ≥ 75
CC(=O)C(C)(C)c1ncccc1Oc1cnc2c(F)cccc2c1 [a-15, 3-[3-(8-fluoro-quinolin-3-yloxy)-pyridin-2-yl]-3-methyl-butan-2-one] |  |  | ≥ 75 | ≥ 75

Reference: patent US9060517B2, “Nitrogenated heterocyclic compound and agricultural or horticultural fungicide” (Nippon Soda Co., Ltd., priority 2011, dated 2015)
